Where a name gives a salt, the structure may show the parent alone.
Molecular target: T1, histamine H-2 receptor (Oryctolagus cuniculus, UniProt G1TWL8)
T1 construct: The mixture of glands and cells is collected by centrifugation; from tissue; host or cells: dispersed gastric glands and cells (parietal cells) from gastric mucosa of New Zealand white rabbit
Assay: aminopyrine test: inhibition of histamine-induced uptake of aminopyrine into the acid space of parietal cells
Assay type: cell-based, New Zealand white rabbit
Conditions: rabbit gastric mucosa glands/cells; uptake stimulated by histamine 10^-5 M and ICI 63197 5×10^-7 M; read-out: concentration giving 50% inhibition of uptake of aminopyrine
Method: The aminopyrine test is carried out as follows:
Gastric mucosa from the New Zealand white rabbit is removed from the underlying muscle and washed in Buffer 1 which contains per liter: NaCl (8.007 g.), KCl (0.201 g.), Na2 HPO4 (0.113 g.), KH2 PO4 (0.204 g.), CaCl2.2H2 O (0.132 g.) MgCl2 (0.101 g.) and glucose (1 g.), adjusted to pH 7.4 with NaOH. The tissue is finely chopped, suspended in Buffer 1 and washed three times with Buffer 1. The tissue is then suspended in a dispersion medium of collagenase (Sigma Chemical Co., Type V; 100 mg.) and bovine serum albumin (Miles Laboratories Ltd., Fraction V; 100 mg.) in Buffer 1 (100 ml.) at 50 ml. per 10 g. net weight of tissue and incubated at 30° C. and pH 7.4 maintained by continuous monitoring, with stirring under an oxygen atmosphere. After 30 minutes the tissue is allowed to settle and the supernatant liquid is removed. Fresh dispersion medium (50 ml. per 10 g. wet weight of tissue) is added and incubation is continued with the tissue being largely dispersed into glands and whole cells after 40-60 minutes. Any remaining large pieces of tissue are removed by filtration through nylon mesh. […] The C^14 aminopyrine retained by the tissue is measured on a scintillation counter and the degree of inhibition of uptake by the test compound is calculated by reference to a control sample. […]

T1 sequence (G1TWL8 1-367): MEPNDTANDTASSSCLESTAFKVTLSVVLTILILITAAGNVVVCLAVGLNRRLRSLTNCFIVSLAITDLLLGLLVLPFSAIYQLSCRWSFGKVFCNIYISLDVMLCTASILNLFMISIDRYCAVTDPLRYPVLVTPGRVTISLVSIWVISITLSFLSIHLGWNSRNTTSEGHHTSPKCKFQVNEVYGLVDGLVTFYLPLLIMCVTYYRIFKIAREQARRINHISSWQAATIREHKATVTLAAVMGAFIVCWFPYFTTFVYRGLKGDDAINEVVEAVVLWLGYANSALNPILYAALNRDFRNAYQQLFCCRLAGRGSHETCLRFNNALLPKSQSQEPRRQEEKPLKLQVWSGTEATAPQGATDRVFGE

`NC(=NCC(F)(F)F)Nc1nc(CSCCNc2n[s+]([O-])nc2N)cs1` (stereo not shown) [Example 1, 3-amino-4-[2-(2-[2,2,2-trifluoroethyl]guanidino)thiazol-4-ylmethylthio]ethylamino-1,2,5-thiadiazole 1-oxide maleate] showed an IC50 of under 3 µM.

Reference: patent US4746672A, “Oxides of 1,2,5-thiadiazoles, their use in pharmaceutical compositions” (ICI Americas Inc., priority 1982, dated 1988)
